biological target: Sterol 14-alpha demethylase (Trypanosoma cruzi (strain CL Brener), UniProt Q7Z1V1); assay: Spectral Titration of TCCYP51; conditions: pH 7.4; 24 °C
Experimental: As a cysteine-coordinated hemoprotein, sterol 14-alpha-demethylase responds spectrally to any perturbations in the area surrounding the heme iron. These spectral responses can be used to estimate the apparent dissociation constants (Kd) of the enzyme/ligand complexes. […] The tested compounds were added in 1 ul aliquots to the test cuvette until the maximum in spectral response was reached. Equal volumes of DMSO were added to the reference cuvette. The apparent Kd values were determined from the equilibrium titration curves by plotting absorbance changes against the concentration of free ligand and fitting the data to a rectangular hyperbola using SigmaPlot Statistics.

Sterol 14-alpha demethylase, sequence (Q7Z1V1 whole entry): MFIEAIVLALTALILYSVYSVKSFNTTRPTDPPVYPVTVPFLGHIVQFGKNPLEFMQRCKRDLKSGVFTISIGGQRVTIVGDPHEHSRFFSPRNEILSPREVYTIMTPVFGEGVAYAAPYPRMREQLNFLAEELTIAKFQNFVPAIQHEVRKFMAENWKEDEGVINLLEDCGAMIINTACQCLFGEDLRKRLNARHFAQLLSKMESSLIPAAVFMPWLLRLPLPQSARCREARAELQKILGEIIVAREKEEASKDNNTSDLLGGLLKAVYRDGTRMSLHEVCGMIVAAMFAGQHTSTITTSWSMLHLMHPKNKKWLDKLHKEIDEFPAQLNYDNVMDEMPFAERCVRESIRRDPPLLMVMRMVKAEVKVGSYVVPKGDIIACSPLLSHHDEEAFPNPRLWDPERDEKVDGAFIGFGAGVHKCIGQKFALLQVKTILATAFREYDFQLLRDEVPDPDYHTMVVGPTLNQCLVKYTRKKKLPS

| Structure (SMILES) | Kd [nM] |
| --- | --- |
| COc1ccc2c(c1)c(CC(=O)Nc1cccnc1C)c(C)n2C(=O)c1ccc(Cl)cc1 [Indomethacin-amide derivative, 13] | 7600 |
| COc1ccc2c(c1)c(CC(=O)NCc1ccc(Cl)nc1)c(C)n2C(=O)c1ccc(Cl)cc1 [Indomethacin-amide derivative, 18] | 260 |
| COc1ccc2c(c1)c(CC(=O)NCc1ccc(C(F)(F)F)nc1)c(C)n2C(=O)c1ccc(Cl)cc1 [Indomethacin-amide derivative, 19] | 560 |
